# Assay results from US10688093B2, “Methods, compositions, and uses of novel Fyn kinase inhibitors” (priority 2015, dated 2020).
# pIC50: −log10 of the molar value.
# Molecular target: full-length recombinant human FYN A (Homo sapiens (Human), UniProt P06241)
# Test: ADP-Glo Kinase Assay of FYN kinase inhibition
# Assay type: biochemical
# Details: primary screen, initial compounds
# Method in brief: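 ADP-Glo read-out of peptide phosphorylation after 90 min RT with 12.5 pmol ATP and 100 pg 12-mer substrate. Enzyme was N-GST full-length human FYN A from insect cells, 3 pg, pre-incubated 30 min with compound, 10 points from 10 μM top, 3-fold steps; IC50 from curve.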
# Sequence of full-length recombinant human FYN A (P06241 whole entry): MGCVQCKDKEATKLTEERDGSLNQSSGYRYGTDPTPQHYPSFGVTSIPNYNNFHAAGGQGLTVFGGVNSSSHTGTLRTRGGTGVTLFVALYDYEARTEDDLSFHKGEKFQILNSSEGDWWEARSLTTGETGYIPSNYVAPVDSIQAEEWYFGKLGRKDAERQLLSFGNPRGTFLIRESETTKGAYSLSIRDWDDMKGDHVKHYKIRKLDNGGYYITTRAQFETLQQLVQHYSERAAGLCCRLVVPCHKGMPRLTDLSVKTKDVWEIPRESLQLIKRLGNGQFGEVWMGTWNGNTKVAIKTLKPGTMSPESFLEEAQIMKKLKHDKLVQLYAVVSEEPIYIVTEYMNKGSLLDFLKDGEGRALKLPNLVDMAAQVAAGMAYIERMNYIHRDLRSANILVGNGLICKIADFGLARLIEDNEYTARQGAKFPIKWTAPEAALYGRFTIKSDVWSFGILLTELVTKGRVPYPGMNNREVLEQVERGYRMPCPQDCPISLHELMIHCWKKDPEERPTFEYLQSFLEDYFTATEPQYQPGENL
row,pIC50,SMILES
1,4.92,"COc1cc(-c2cc(-c3ccoc3)cnc2N)cc(OC)c1OC [382_0087_0343, 5-(3-furyl)-3-(3,4,5-trimethoxy-phenyl)pyridin-2-amine]"
2,6.40,"COc1cc(-c2cc(-c3ccc(C(N)=O)cc3)cnc2N)cc(OC)c1OC [382_0087_0346, 4-[6-amino-5-(3,4,5-trimethoxy-phenyl)-3-pyridyl]benzamide]"
3,5.02,"COc1cccc(-c2cnc(N)c(-c3cc(OC)c(OC)c(OC)c3)c2)c1 [382_0087_4140, 5-(3-methoxyphenyl)-3-(3,4,5-trimethoxyphenyl) pyridin-2-amine]"
4,6.28,"COc1cc(-c2cc(-c3cccc(NS(C)(=O)=O)c3)cnc2N)cc(OC)c1OC [382_0087_6488, N-[3-[6-amino-5-(3,4,5-trimethoxy-phenyl)-3-pyridyl]phenyl] methane-sulfonamide]"
5,5.76,"COc1cc(-c2cc(-c3ccc(O)cc3)cnc2N)cc(OC)c1OC [382_0087_7249, 4-[6-amino-5-(3,4,5-trimethoxy-phenyl)-3-pyridyl]phenol]"
6,6.29,"COc1cc(-c2cc(-c3ccc(C(=O)NC4CC4)cc3)cnc2N)cc(OC)c1OC [382_0087_7489, 4-[6-amino-5-(3,4,5-trimethoxy-phenyl)-3-pyridyl]-N-cyclopropyl-benzamide]"
7,5.33,"CN(C)CCCOc1ccc(-c2cnc(N)c(-c3cccc(N(C)C)c3)c2)cn1 [382_0135_0002, 3-[3-(dimethylamino)phenyl]-5-[6-[3-(dimethyl-amino)propoxy]-3-pyridyl]pyridin-2-amine]"
8,5.15,"CN(C)c1cccc(-c2cc(-c3cccnc3)cnc2N)c1 [382_0135_0071, 3-[3-(dimethyl-amino)phenyl]-5-(3-pyridyl)pyridin-2-amine]"
9,5.30,"COc1ccc(-c2cnc(N)c(-c3cccc(N(C)C)c3)c2)cc1OC [382_0135_0079, 5-(3,4-dimethoxy-phenyl)-3-[3-(dimethylamino)phenyl]pyridin-2-amine]"
10,5.50,"COc1cc(-c2cnc(N)c(-c3cccc(N(C)C)c3)c2)cc(OC)c1OC [382_0135_0087, 3-[3-(dimethyl-amino)phenyl]-5-(3,4,5-trimethoxy-phenyl)pyridin-2-amine]"
11,5.45,"CN(C)c1cccc(-c2cc(-c3cccc(C(=O)NCCO)c3)cnc2N)c1 [382_0135_0192, 3-[6-amino-5-[3-(dimethylamino)phenyl]-3-pyridyl]-N-(2-hydroxyethyl) benzamide]"
12,5.35,"CN1CCN(C(=O)c2cccc(-c3cnc(N)c(-c4cccc(N(C)C)c4)c3)c2)CC1 [382_0135_0200, [3-[6-amino-5-[3-(dimethylamino)phenyl]-3-pyridyl]phenyl]-(4-methyl-piperazin-1-yl)methanone]"
13,5.57,"CN(C)c1cccc(-c2cc(-c3cccc(CO)c3)cnc2N)c1 [382_0135_0291, [3-[6-amino-5-[3-(dimethylamino)phenyl]-3-pyridyl]phenyl] methanol]"
14,5.68,"COc1cc(-c2cnc(N)c(-c3cccc(N(C)C)c3)c2)ccc1O [382_0135_0314, 4-[6-amino-5-[3-(dimethylamino)phenyl]-3-pyridyl]-2-methoxy-phenol]"
15,5.38,"Cc1cc(-c2cnc(N)c(-c3cccc(N(C)C)c3)c2)cc(C)c1O [382_0135_0315, 4-[6-amino-5-[3-(dimethylamino)phenyl]-3-pyridyl]-2,6-dimethyl-phenol]"
16,5.45,"CN(C)c1cccc(-c2cc(-c3cccc(C(N)=O)c3)cnc2N)c1 [382_0135_0347, 3-[6-amino-5-[3-(dimethylamino)phenyl]-3-pyridyl] benzamide]"
17,5.33,"Nc1ncc(-c2ccc(N3CCOCC3)cc2)cc1-c1cccc(O)c1 [382_0284_0001, 3-[2-amino-5-(4-morpholino-phenyl)-3-pyridyl]phenol]"
18,5.70,"COc1ccc(-c2cnc(N)c(-c3cccc(O)c3)c2)cc1OC [382_0284_0079, 3-[2-amino-5-(3,4-dimethoxy-phenyl)-3-pyridyl]phenol]"
19,5.99,"COc1cc(-c2cnc(N)c(-c3cccc(O)c3)c2)cc(OC)c1OC [382_0284_0087, 3-[2-amino-5-(3,4,5-trimethoxy-phenyl)-3-pyridyl]phenol]"
20,5.29,"COc1ccc(-c2cnc(N)c(-c3ccc(CO)cc3)c2)cc1OC [382_0285_0079, [4-[2-amino-5-(3,4-dimethoxy-phenyl)-3-pyridyl]phenyl] methanol]"
21,5.33,"Cc1cc(-c2cnc(N)c(-c3ccc(CO)cc3)c2)cc(C)c1O [382_0285_0315, 4-[6-amino-5-[4-(hydroxymethyl)phenyl]-3-pyridyl]-2,6-dimethyl-phenol]"
22,5.83,"COc1cc(-c2cc(-c3ccccc3)cnc2N)ccc1O [382_0314_0061, 4-(2-amino-5-phenyl-3-pyridyl)-2-methoxy-phenol]"
23,7.09,"COc1cc(-c2cc(-c3cc(OC)c(OC)c(OC)c3)cnc2N)ccc1O [382_0314_0087, 4-[2-amino-5-(3,4,5-trimethoxy-phenyl)-3-pyridyl]-2-methoxy-phenol]"
24,4.95,"COc1cc(-c2cc(-c3ccc(F)c(Cl)c3)cnc2N)ccc1O [382_0314_0164, 4-[2-amino-5-(3-chloro-4-fluoro-phenyl)-3-pyridyl]-2-methoxy-phenol]"

row,pIC50,SMILES
1,6.46,"COc1cc(-c2cc(-c3ccc(S(C)(=O)=O)cc3)cnc2N)ccc1O [382_0314_0174, 4-[2-amino-5-(4-methylsulfonyl-phenyl)-3-pyridyl]-2-methoxy-phenol]"
2,5.45,"COc1cc(-c2cc(-c3cccc(Cl)c3)cnc2N)ccc1O [382_0314_0279, 4-[2-amino-5-(3-chlorophenyl)-3-pyridyl]-2-methoxy-phenol]"
3,5.38,"COc1ccc(-c2cnc(N)c(-c3ccc(O)c(OC)c3)c2)cc1 [382_0314_0280, 4-[2-amino-5-(4-methoxyphenyl)-3-pyridyl]-2-methoxy-phenol]"
4,5.69,"COc1cc(-c2cc(-c3cccc(F)c3)cnc2N)ccc1O [382_0314_0313, 4-[2-amino-5-(3-fluorophenyl)-3-pyridyl]-2-methoxy-phenol]"
5,6.28,"COc1cc(-c2cc(-c3cc(C)c(O)c(C)c3)cnc2N)ccc1O [382_0314_0315, 4-[6-amino-5-(4-hydroxy-3-methoxy-phenyl)-3-pyridyl]-2,6-dimethyl-phenol]"
6,5.49,"COc1cc(-c2cc(-c3ccc(F)cc3)cnc2N)ccc1O [382_0314_0339, 4-[2-amino-5-(4-fluorophenyl)-3-pyridyl]-2-methoxy-phenol]"
7,5.36,"COc1cc(-c2cc(-c3ccc(C)cc3)cnc2N)ccc1O [382_0314_4139, 4-[2-amino-5-(p-tolyl)-3-pyridyl]-2-methoxy-phenol]"
8,5.92,"COc1cccc(-c2cnc(N)c(-c3ccc(O)c(OC)c3)c2)c1 [382_0314_4140, 4-[2-amino-5-(3-methoxyphenyl)-3-pyridyl]-2-methoxy-phenol]"
9,5.81,COCOc1ccc(-c2cc(-c3cccc(NC(C)=O)c3)cnc2N)cc1 [382_0341_0081]
10,5.72,"COCOc1ccc(-c2cc(-c3cc(OC)c(OC)c(OC)c3)cnc2N)cc1 [382_0341_0087, 3-[4-(methoxymethoxy)phenyl]-5-(3,4,5-trimethoxy-phenyl)pyridin-2-amine]"
11,5.34,"COCOc1ccc(-c2cc(-c3cccc(CO)c3)cnc2N)cc1 [382_0341_0291, [3-[6-amino-5-[4-(methoxymethoxy)phenyl]-3-pyridyl]phenyl] methanol]"
12,5.47,"COCOc1ccc(-c2cc(-c3ccc(C(N)=O)cc3)cnc2N)cc1 [382_0341_0346, 4-[6-amino-5-[4-(methoxy-methoxy)phenyl]-3-pyridyl] benzamide]"
13,5.52,"COCOc1ccc(-c2cc(-c3cccc(C(N)=O)c3)cnc2N)cc1 [382_0341_0347, 3-[6-amino-5-[4-(methoxymethoxy)phenyl]-3-pyridyl]benzamide]"
14,6.08,"CC(=O)Nc1cccc(-c2cnc(N)c(-c3ccc(O)cc3)c2)c1 [382_7249_0081, N-[3-[6-amino-5-(4-hydroxyphenyl)-3-pyridyl]phenyl] acetamide]"
15,6.68,"COc1cc(-c2cnc(N)c(-c3ccc(O)cc3)c2)cc(OC)c1OC [382_7249_0087, 4-[2-amino-5-(3,4,5-trimethoxy-phenyl)-3-pyridyl]phenol]"
16,5.66,"CN(C)c1cccc(-c2cnc(N)c(-c3ccc(O)cc3)c2)c1 [382_7249_0135, 4-[2-amino-5-[3-(dimethylamino)phenyl]-3-pyridyl]phenol]"
17,5.90,"CS(=O)(=O)c1ccc(-c2cnc(N)c(-c3ccc(O)cc3)c2)cc1 [382_7249_0174, 4-[2-amino-5-(4-methylsulfonyl-phenyl)-3-pyridyl]phenol]"
18,5.46,"COc1cccc(-c2cnc(N)c(-c3ccc(O)cc3)c2)c1 [382_7249_4140, 4-[2-amino-5-(3-methoxyphenyl)-3-pyridyl]phenol]"
19,5.16,"CN(C)CCNC(=O)c1ccc(-c2cn3c(-c4ccncc4)cnc3cn2)cc1 [388_0069_0327, N-(2-dimethylamino-ethyl)-4-[3-(4-pyridyl)imidazo [1,2-a]pyrazin-6-yl]benzamide]"
20,5.40,"c1ccc(-c2cn3c(-c4ccsc4)cnc3cn2)cc1 [388_0074_0061, 6-phenyl-3-(3-thienyl)imidazo [1,2-a]pyrazine]"
21,5.36,"c1cncc(-c2cn3c(-c4ccsc4)cnc3cn2)c1 [388_0074_0071, 6-(3-pyridyl)-3-(3-thienyl)imidazo [1,2-a]pyrazine]"
22,5.63,"OCc1ccc(-c2cn3c(-c4ccsc4)cnc3cn2)cc1 [388_0074_0285, [4-[3-(3-thienyl)imidazo [1,2-a]pyrazin-6-yl]phenyl] methanol]"
23,5.20,"Cn1cc(-c2cn3c(-c4ccsc4)cnc3cn2)cn1 [388_0074_8400, 6-(1-methylpyrazol-4-yl)-3-(3-thienyl)imidazo [1,2-a]pyrazine]"
24,6.20,"CC(C)N1CCN(c2ccc(-c3cn4c(-c5ccc(O)cc5)cnc4cn3)cc2)CC1 [388_0080_0182, 4-[6-[4-(4-isopropyl-piperazin-1-yl)phenyl]imidazo [1,2-a]pyrazin-3-yl]phenol]"
